Measurements reported in patent US20220071205A1, “HERBICIDE” (UPL LTD, priority 2018, published 2022).

Assays:
winter wheat [1] = assay: Normalised plant growth of winter wheat at another site (Example 1, FIG. 2); assay type: in vivo; conditions: pre-em
Experimental: Similar experiments were carried out at another site where the effect of seed depth was to be determined, see Example 3 below. Control experiments were conducted with the conventional herbicides Trooper and Xerton, as defined above.

winter wheat [2] = assay: Normalised plant count of winter wheat, field trials (Example 1, FIG. 1); assay type: in vivo; conditions: average of 6 field trials
Experimental: A herbicide composition consisting of an SC of 450 g/L napropamide-m was applied to winter wheat either pre- or post-emergence. The normalised plant count was determined as a percentage of the plant count observed in the absence of the herbicide. Control experiments were conducted with the conventional herbicide Trooper, as defined above.
Results from an average of 6 field trials (napropamide; Trooper low dose: 4 sites; Trooper high dose: 2 sites) with herbicide application in October are shown in FIG. 1. […] Plant survival after emergence was 100% of the survival rate in the absence of napropamide.

## CCN(CC)C(=O)C(C)Oc1cccc2ccccc12 (stereo not drawn) [napropamide, N,N-diethyl-2-(α-naphthoxy) propionamide]
Winter wheat [1]
  Plant survival after emergence: comparable with that following application of conventional herbicides Trooper/Malibu and Xerton
  effect on the growth of winter wheat: very low effect
Winter wheat [2]; % of the survival rate in the absence of napropamide
  Plant survival after emergence: 100%
Winter wheat [2]; herbicide application in October
  effect on the growth of winter wheat: no detectable effect
